# Laboratory results: patent US10696615B2, “Prenylated hydroxystilbenes” (The University of Sydney, priority 2011, dated 2020)
# Legend:
# [1] = tested on: MCF7; test: NCI in vitro cancer screen, Breast Cancer; type: cell-based, human; settings: MCF7, unit not printed (M)
# [2] = tested on: K-562; test: NCI in vitro cancer screen, Leukemia; type: cell-based, human; settings: K-562, unit not printed (M)
# [3] = tested on: CAKI-1; test: NCI in vitro cancer screen, Renal Cancer; type: cell-based, human; settings: CAKI-1, unit not printed (M)
# [4] = tested on: OVCAR-3; test: NCI in vitro cancer screen, Ovarian Cancer; type: cell-based, human; settings: OVCAR-3, unit not printed (M)
# [5] = tested on: IGROV1; test: NCI in vitro cancer screen, Ovarian Cancer; type: cell-based, human; settings: IGROV1, unit not printed (M)
# [6] = tested on: UO-31; test: NCI in vitro cancer screen, Renal Cancer; type: cell-based, human; settings: UO-31, unit not printed (M)
# [7] = tested on: NCI-H522; test: NCI in vitro cancer screen, Non-Small Cell Lung Cancer; type: cell-based, human; settings: NCI-H522, unit not printed (M)
# [8] = tested on: OVCAR-4; test: NCI in vitro cancer screen, Ovarian Cancer; type: cell-based, human; settings: OVCAR-4, unit not printed (M)
# [9] = tested on: NCI-H322M; test: NCI in vitro cancer screen, Non-Small Cell Lung Cancer; type: cell-based, human; settings: unit not printed (M)
# [10] = tested on: ADR-RES (NCI/ADR-RES); test: NCI in vitro cancer screen, Ovarian Cancer; type: cell-based, human; settings: NCI/ADR-RES, unit not printed (M)
# [11] = tested on: SNB-75; test: NCI in vitro cancer screen, CNS Cancer; type: cell-based, human; settings: SNB-75, unit not printed (M)
# [12] = tested on: COLO 205; test: NCI in vitro cancer screen, Colon Cancer; type: cell-based, human; settings: COLO, unit not printed (M)
# [13] = tested on: A549/ATCC; test: NCI in vitro cancer screen, Non-Small Cell Lung Cancer; type: cell-based, human; settings: unit not printed (M)
# [14] = tested on: HT29; test: NCI in vitro cancer screen, Colon Cancer; type: cell-based, human; settings: HT29, unit not printed (M)
# [15] = tested on: HOP-92; test: NCI in vitro cancer screen, Non-Small Cell Lung Cancer; type: cell-based, human; settings: HOP (second HOP line), unit not printed (M)
# [16] = tested on: U251; test: NCI in vitro cancer screen, CNS Cancer; type: cell-based, human; settings: U251, unit not printed (M)
# [17] = tested on: ACHN; test: NCI in vitro cancer screen, Renal Cancer; type: cell-based, human; settings: unit not printed (M)
# [18] = tested on: HCT-116; test: NCI in vitro cancer screen, Colon Cancer; type: cell-based, human; settings: HCT-116, unit not printed (M)
# [19] = tested on: HL-60 (TB); test: NCI in vitro cancer screen, Leukemia; type: cell-based, human; settings: HL-60(TB), unit not printed (M)
# [20] = tested on: MDA-MB-231 (MDA-MB-231/ATCC); test: NCI in vitro cancer screen, Breast Cancer; type: cell-based, human; settings: MDA-MB-231/ATCC, unit not printed (M)
# [21] = tested on: KM12; test: NCI in vitro cancer screen, Colon Cancer; type: cell-based, human; settings: KM12, unit not printed (M)
# [22] = tested on: NCI-H226; test: NCI in vitro cancer screen, Non-Small Cell Lung Cancer; type: cell-based, human; settings: NCI-H226, unit not printed (M)
# [23] = tested on: SF-539; test: NCI in vitro cancer screen, CNS Cancer; type: cell-based; settings: SF-539, unit not printed (M)
# [24] = tested on: UACC-257; test: NCI in vitro cancer screen, Melanoma; type: cell-based, human; settings: UACC-257, unit not printed (M)
# [25] = tested on: MALME-3M; test: NCI in vitro cancer screen, Melanoma; type: cell-based, human; settings: MALME-3M, unit not printed (M)
# [26] = tested on: SNB-19; test: NCI in vitro cancer screen, CNS Cancer; type: cell-based, human; settings: SNB-19, unit not printed (M)
# [27] = tested on: SW-620; test: NCI in vitro cancer screen, Colon Cancer; type: cell-based, human; settings: SW-620, unit not printed (M)
# [28] = tested on: SF-295; test: NCI in vitro cancer screen, CNS Cancer; type: cell-based, human; settings: SF-295, unit not printed (M)
# [29] = tested on: MOLT-4; test: NCI in vitro cancer screen, Leukemia; type: cell-based, human; settings: MOLT, unit not printed (M)
# [30] = tested on: OVCAR-5; test: NCI in vitro cancer screen, Ovarian Cancer; type: cell-based, human; settings: OVCAR-5, unit not printed (M)
# [31] = tested on: DU-145; test: NCI in vitro cancer screen, Prostate Cancer; type: cell-based, human; settings: DU-145, unit not printed (M)
# [32] = Homo sapiens, read-out: LC50 (the source's name)
smiles,measurement,setting,value
"COc1cc(/C=C/c2cc(O)cc(O)c2CC=C(C)C)ccc1O [USYDS10, (E)-2-(3-methyl-2-buten-1-yl)-3,4′,5-trihydroxy-3′-methoxystilbene]",GI50,[1]; Homo sapiens,0.332 µM
same,CC50,[1]; [32],50.6 µM
same,TGI,[1],1.30E−5
same,GI50,"[2]; Homo sapiens, K562",0.386 µM
same,CC50,"[2]; Homo sapiens, K562, read-out: LC50 (the source's name)",> 100 µM
same,TGI,[2],3.17E−5
same,TGI,[3],6.68E−5
same,GI50,[3]; Homo sapiens,0.539 µM
same,CC50,[3]; [32],> 100 µM
same,GI50,[4]; Homo sapiens,0.372 µM
same,CC50,[4]; [32],> 100 µM
same,TGI,[4],2.03E−5
same,GI50,"[5]; Homo sapiens, IGROV-1",2.03 µM
same,CC50,"[5]; Homo sapiens, IGROV-1, read-out: LC50 (the source's name)",> 100 µM
same,TGI,[5],>1.00E−4
same,GI50,[6]; Homo sapiens,0.878 µM
same,CC50,[6]; [32],95.2 µM
same,TGI,[6],2.17E−5
same,GI50,[7]; Homo sapiens,0.349 µM
same,CC50,[7]; [32],42.2 µM
same,TGI,[7],1.46E−5
same,GI50,[8]; Homo sapiens,1.03 µM
same,CC50,[8]; [32],57.7 µM
same,TGI,[8],1.82E−5
same,GI50,[9]; Homo sapiens,11.8 µM
same,LC50 (50% lethal concentration),[9]; Homo sapiens,83.7 µM
same,TGI,[9],3.14E−5
same,GI50,[10]; Homo sapiens,0.183 µM
same,CC50,[10]; [32],> 100 µM
same,TGI,[10],8.04E−7
same,GI50,[11]; Homo sapiens,0.236 µM
same,CC50,[11]; [32],36.1 µM
same,TGI,[11],1.22E−5
same,TGI,[12],2.97E−5
same,GI50,"[12]; Homo sapiens, COLO 205",15.3 µM
same,CC50,"[12]; Homo sapiens, COLO 205, read-out: LC50 (the source's name)",57.7 µM
same,GI50,[13]; Homo sapiens,0.66 µM
same,CC50,[13]; [32],> 100 µM
same,TGI,[13],2.25E−5
same,TGI,[14],2.13E−5
same,GI50,"[14]; Homo sapiens, HT-29",5.72 µM
same,CC50,"[14]; Homo sapiens, HT-29, read-out: LC50 (the source's name)",69 µM
same,TGI,[15],2.63E−5
same,GI50,"[15]; Homo sapiens, HOP-92",0.398 µM
same,CC50,"[15]; Homo sapiens, HOP-92, read-out: LC50 (the source's name)",93.2 µM
same,GI50,"[16]; Homo sapiens, U-251",0.419 µM
same,CC50,"[16]; Homo sapiens, U-251, read-out: LC50 (the source's name)",78.8 µM
same,TGI,[16],1.62E−5
same,GI50,[17]; Homo sapiens,0.903 µM
same,CC50,[17]; [32],> 100 µM
same,TGI,[17],3.79E−5
same,TGI,[18],1.30E−5
same,GI50,[18]; Homo sapiens,0.48 µM
same,LC50 (concentration killing 50% of cells),[18]; Homo sapiens,42.7 µM
same,TGI,[19],1.88E−6
same,GI50,[19]; Homo sapiens,0.327 µM
same,CC50,[19]; [32],> 100 µM
same,GI50,[20]; Homo sapiens,0.642 µM
same,CC50,[20]; [32],> 100 µM
same,TGI,[20],3.20E−5
same,GI50,[21]; Homo sapiens,0.497 µM
same,CC50,[21]; [32],85.8 µM
same,TGI,[21],1.53E−5
same,GI50,[22]; Homo sapiens,5.35 µM
same,LC50 (50% lethal concentration),[22]; Homo sapiens,> 100 µM
same,TGI,[22],3.50E−5
same,GI50,[23]; Homo sapiens,0.376 µM
same,CC50,[23]; [32],41.7 µM
same,TGI,[23],1.29E−5
same,GI50,[24]; Homo sapiens,11.7 µM
same,CC50,[24]; [32],73.7 µM
same,TGI,[24],2.94E−5
same,GI50,[25]; Homo sapiens,18.7 µM
same,CC50,[25]; [32],92.9 µM
same,TGI,[25],4.17E−5
same,GI50,[26]; Homo sapiens,0.613 µM
same,CC50,[26]; [32],> 100 µM
same,TGI,[26],2.28E−5
same,GI50,[27]; Homo sapiens,0.362 µM
same,CC50,[27]; [32],85.5 µM
same,TGI,[27],2.15E−5
same,GI50,[28]; Homo sapiens,2.01 µM
same,CC50,[28]; [32],> 100 µM
same,TGI,[28],1.91E−5
same,GI50,"[29]; Homo sapiens, MOLT-4",0.596 µM
same,CC50,"[29]; Homo sapiens, MOLT-4, read-out: LC50 (the source's name)",> 100 µM
same,TGI,[29],1.99E−5
same,GI50,[30]; Homo sapiens,8.92 µM
same,CC50,[30]; [32],83.1 µM
same,TGI,[30],2.80E−5
same,TGI,[31],2.05E−5
same,GI50,[31]; Homo sapiens,0.442 µM
same,CC50,[31]; [32],> 100 µM
